Test results from patent US11666048B2, “Treatment for plants in conjunction with harvesting” (CORBET SCIENTIFIC, LLC, priority 2017, dated 2023).
Where “and” joins values, the source holds several entries; their conditions need not be identical. Equal values may be shown once. Entries after “also recorded” stand apart in the source; their conditions may differ.

Experiments:
harvested grapefruit [1] = assay: Water retention and disease protection in harvested grapefruit, pre-harvest spray (Example 3); type: in vivo
Protocol: Grapefruit trees were separated into three groups. Fruit in Groups 2 and 3 were treated prior to harvesting. Group 3 was treated with an aqueous treatment formulation comprising 95.70 wt % water, 2.00 wt % ACUSOL® 823, 0.10 wt % PVA (100,000 MW), 0.10 wt % ZnSO4 monohydrate, 0.10 wt % Antifoam® 8810, and 2.00 wt % TEA. […] Group 1 was untreated and served as a control. Groups 2 and 3 fruit were spray treated on Day −14 in the grove. Fruit was not de-greened. Fruit was weighed on Day 0, prior to packaging. Size 27-36 fruit were packed in honeycomb cartons, whereas size 40 fruit was packed in regular 4/5 cartons. Packed fruit was inspected on Day 68.

Diplodia = assay: Post-harvest disease protection in fruit: Diplodia (Example 5); type: in vivo, grapefruit; conditions: after 40 days in storage
Protocol: (§1) Grapefruit trees were separated into three groups. […] Spray treatment formulations were applied using a commercial air-blast sprayer (250 gallons/acre). Size 40 fruit were harvested in quadruplicate, washed, and waxed on Day 0. The washed and waxed fruit as then stored at ambient conditions (approximately 70-75° F.) for 40 days. Size 40 fruit harvested on Day 1 were left unwashed and unwaxed prior to storage (unwashed and unwaxed samples). After 40 days in storage, no significant differences were observed between treated and untreated fruit in terms of the percentage of healthy fruit and the percentage of total decay in the two groups.

Green Mold = assay: Post-harvest disease protection in fruit: Green Mold (Example 5); type: in vivo, grapefruit; conditions: after 40 days in storage
Protocol: as §1

harvested grapefruit [2] = assay: Post-harvest disease protection in fruit: healthy fruit, total decay, stem-end rind breakdown (Example 5); type: in vivo; conditions: after 40 days in storage
Protocol: as §1

Anthracnose = assay: Post-harvest disease protection in fruit: Anthracnose (Example 5); type: in vivo, grapefruit; conditions: after 40 days in storage
Protocol: as §1

harvested grapefruit [3] = assay: Post-harvest water-loss protection in fruit (Example 5); type: in vivo; conditions: ambient storage
Protocol: Grapefruit trees were separated into three groups. […] Spray treatment formulations were applied using a commercial air-blast sprayer (250 gallons/acre). Size 40 fruit were harvested in quadruplicate, washed, and waxed on Day 0. The washed and waxed fruit as then stored at ambient conditions (approximately 70-75° F.) for 40 days. Size 40 fruit harvested on Day 1 were left unwashed and unwaxed prior to storage (unwashed and unwaxed samples). To test the ability of the aqueous formulation of the present invention to protect harvested fruit from water loss, stored fruit were observed 8 and 20 days after harvest.

[4] = average over cartons of the group

In the case of `O=P([O-])(O)O.[K+]` [MKP, mono potassium phosphate], the “Average Weight Difference (%)” value (harvested grapefruit [1]; [4]) is reported as 12.5%, the “Average Δ Weight (lbs)” value (harvested grapefruit [1]; [4]) is reported as 5 lbs and the “Weight Difference (%)” value (harvested grapefruit [1]; fruit size 27, Day 0 to Day 54) is reported as 11%. For the same compound, the “Δ Weight (lbs)” value (harvested grapefruit [1]; fruit size 27, Day 0 to Day 54) was 4.4 lbs and 4.6 lbs, the “Weight Difference (%)” value (harvested grapefruit [1]; fruit size 32, Day 0 to Day 54) was 14% and 13% and the “Δ Weight (lbs)” value (harvested grapefruit [1]; fruit size 32, Day 0 to Day 54) was 5.6 lbs and 5.2 lbs. For the same compound, the “Disease (puncture)” value (harvested grapefruit [1]; fruit size 32, fruit per carton at inspection) was 1 puncture, the “Weight Difference (%)” value (harvested grapefruit [1]; fruit size 36, Day 0 to Day 54) was 14% and the “Δ Weight (lbs)” value (harvested grapefruit [1]; fruit size 36, Day 0 to Day 54) was 5.6 lbs and 5.8 lbs. For the same compound, the Disease (harvested grapefruit [1]; fruit size 36, fruit per carton at inspection) was 4 rot and 3 rot, the “Weight Difference (%)” value (harvested grapefruit [1]; fruit size 40, Day 0 to Day 54) was 12% and 11% and the “Δ Weight (lbs)” value (harvested grapefruit [1]; fruit size 40, Day 0 to Day 54) was 4.6 lbs and 4.2 lbs. For the same compound, the Disease (harvested grapefruit [1]; fruit size 40, fruit per carton at inspection) was 1 rot, the “shine and firmness compared with control” value (harvested grapefruit [1]; packed fruit at inspection) was “negligible” and the “Fruit Condition” value (harvested grapefruit [1]; remarks printed beside carton lines, probably for the whole group, footnote: ⅔ fruit per carton were very firm) was “no shine; also recorded: Like control; also recorded: very soft”.

`O=P([O-])([O-])O.[K+].[K+]` [DKP, di-potassium phosphate] was tested, and the “Disease Diplodia (%)” value (Diplodia) was 6.5%, the “Disease Green Mold (%)” value (Green Mold) was 3.96% and the “SERB (stem-end rind breakdown) (%)” value (harvested grapefruit [2]) was 7.15% and 7.15 ab %. The “Total Decay (%)” value (harvested grapefruit [2]) was 16.31%, the “Healthy (%)” value (harvested grapefruit [2]; washed and waxed fruit) was 77.15% and the “Disease Anthracnose (%)” value (Anthracnose) was 5.9%. For the same compound, the “Wt. Loss (%) Day 8” value (harvested grapefruit [3]; not washed and waxed) was 1.43 a %, the “Wt. Loss (%) Day 20” value (harvested grapefruit [3]; not washed and waxed) was 4.08 a % and the “Wt. Loss (%) Day 8” value (harvested grapefruit [3]; washed and waxed) was 1.11 c %. The “Wt. Loss (%) Day 20” value (harvested grapefruit [3]; washed and waxed) was 3.89 a %.
